Data on 2 compounds can be found in US20060169172A1, “Disazo compound and ink composition containing the same” (priority 2003, published 2006).

Format in all cases: physicochemical
Data set [1] is described as follows: Test for light fastness (xenon weather meter). As to conditions: 24° C., 60% RH, 50 hours. The procedure: (§1) The solution of the composition shown in Table 2 below, containing the disazo compound (a dyestuff component) obtained in Example 1 or 2 was prepared and filtered with a 0.45 μm membrane filter to obtain each water-based yellow ink composition for ink-jet printing. Ion-exchange water was used. Water and ammonium hydroxide were added so that the pH of the ink composition is 8 to 10 and the total amount is 100 parts.
(§2) Ink-jet recording is carried out on four kinds of recording materials of plain paper, Professional photo paper (PR-101 (made by Canon Inc.)), Photo glossy film (HG-201 (made by Canon Inc.)) and Paper for PM photo (made by SEIKO EPSON CORP.), using an ink-jet printer (Trade name: BJ S-630 from Canon Inc.) (hereinafter, described as follows, PR: Professional photo paper, HG: Photo glossy film, PM: Paper for PM photo).
The recorded image was irradiated at 24° C. and 60% RH for 50 hours using a xenon weather meter (made by Atlas Corp.). Densities (D values) of the images before and after the irradiation were measured by means of the above calorimetric system.
Residual ratio (%)=D value after irradiation/D value before irradiation
(§3) The results of evaluation of the ink composition prepared using the compound obtained in Example 1 are referred to Evaluation Example 1, and similarly the results of evaluation of the ink composition prepared using the compound obtained in Example 2 are referred to Evaluation Example 2. The compound represented by the following formula (6) and the compound represented by the following formula (7) were used as Comparative Example 1 and Comparative Example 2 and those were evaluated at the same optical density as those of Evaluation Examples 1 and 2 in the composition shown in Table 2.

Data set [2] in a line: Test for ozone fastness (ozone weather meter). As to conditions: 24° C., 12 ppm, 60% RH, 2 hours. The procedure:
as §1, §2
(§4) A sample piece having a recorded image printed on the sample piece was left for standing at 24° C., 12 ppm and 60% RH for 2 hours using an ozone weather meter (Model OMS-H made by Suga Test Instruments Co., Ltd.). Densities (D values) before and after the test were measured. (4) A sample piece having a recorded image printed on the sample piece for a moisture fastness test was left for standing at 50° C. and 90% RH for 150 hours in a thermo-hygrostat (made by Ouyou giken sangyou Corp.). Bleeding degrees before and after the test was evaluated by visual inspection.
as §3

Data set [3] in a line: Moisture fastness test (bleeding, visual inspection). Also on record: key: ◯: No bleeding is observed.; Δ: Bleeding is a little observed.; X: Bleeding is seriously observed. As to conditions: 50° C., 90% RH, 150 hours. The procedure:
as §1, §2, §4
◯: No bleeding is observed.
Δ: Bleeding is a little observed.
X: Bleeding is seriously observed.
as §3

Take `COc1cc(N=Nc2cccc(S(=O)(=O)[O-])c2)ccc1NC(=O)Nc1ccc(N=Nc2cccc(S(=O)(=O)[O-])c2)cc1OC.[Na+].[Na+]` [Comparative Example 2]: the “Light Fastness (residual ratio)” value in data set [1] (HG (Photo glossy film)) turned out to be 63%; in data set [1] (PM (Paper for PM photo)), 94%; in data set [1] (PR (Professional photo paper)), 82%; in data set [1] (Plain Paper) it was 81%. For the same compound, the “Ozone Fastness (residual ratio)” value stood at 74% in data set [2] (HG (Photo glossy film)), 97% in data set [2] (PM (Paper for PM photo)), 82% in data set [2] (PR (Professional photo paper)) and 98% in data set [2] (Plain Paper). The “Moisture Fastness” value is “Δ” in data set [3] (HG (Photo glossy film)), “X” in data set [3] (PM (Paper for PM photo)), “◯” in data set [3] (PR (Professional photo paper)) and “◯” in data set [3] (Plain Paper).

For `COc1cc(N=Nc2cccc(S(=O)(=O)[O-])c2)ccc1Nc1nc(Nc2ccc(N=Nc3cccc(S(=O)(=O)[O-])c3)cc2OC)nc(N(CCO)CCO)n1.[Na+].[Na+]` [Comparative Example 1], the “Light Fastness (residual ratio)” value in data set [1] (HG (Photo glossy film)) was 67%; in data set [1] (PM (Paper for PM photo)), 86%; in data set [1] (PR (Professional photo paper)), 80%; in data set [1] (Plain Paper) it was 78%. In addition, the “Ozone Fastness (residual ratio)” value in data set [2] (HG (Photo glossy film)) turned out to be 91%; in data set [2] (PM (Paper for PM photo)), 97%; in data set [2] (PR (Professional photo paper)) it was 89%; in data set [2] (Plain Paper) it was 99%. The “Moisture Fastness” value in data set [3] (HG (Photo glossy film)) is recorded as “◯-Δ”; in data set [3] (PM (Paper for PM photo)), “◯-Δ”; in data set [3] (PR (Professional photo paper)), “◯”; in data set [3] (Plain Paper), “◯”.
